Reference: US9783552B2, “Soluble guanylate cyclase activators” (MERCK SHARP & DOHME CORP., priority 2013, dated 2017)

Biological target: T1, sGC α1/β1 heterodimer (Homo sapiens, UniProt Q02108+Q02153)
T1 construct: expressed in transfected cells
T1 sequence (Q02108 1-690): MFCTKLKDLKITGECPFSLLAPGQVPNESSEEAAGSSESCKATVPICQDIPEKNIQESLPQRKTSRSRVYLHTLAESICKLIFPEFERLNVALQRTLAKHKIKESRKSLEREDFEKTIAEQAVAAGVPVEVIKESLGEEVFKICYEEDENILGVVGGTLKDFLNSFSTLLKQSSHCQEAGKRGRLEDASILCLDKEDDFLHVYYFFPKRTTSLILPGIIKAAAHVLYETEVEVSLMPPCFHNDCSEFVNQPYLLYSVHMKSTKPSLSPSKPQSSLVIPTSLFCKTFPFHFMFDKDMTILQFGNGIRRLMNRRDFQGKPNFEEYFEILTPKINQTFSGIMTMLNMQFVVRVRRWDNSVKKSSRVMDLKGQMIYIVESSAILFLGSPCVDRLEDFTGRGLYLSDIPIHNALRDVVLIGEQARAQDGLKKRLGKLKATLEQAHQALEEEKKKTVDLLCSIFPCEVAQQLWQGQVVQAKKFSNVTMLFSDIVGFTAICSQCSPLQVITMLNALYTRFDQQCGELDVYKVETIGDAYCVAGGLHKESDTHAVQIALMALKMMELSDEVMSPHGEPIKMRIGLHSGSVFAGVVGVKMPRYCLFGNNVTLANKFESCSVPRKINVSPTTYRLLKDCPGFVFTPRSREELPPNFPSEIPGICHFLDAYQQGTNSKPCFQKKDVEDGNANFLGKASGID
T1 sequence (Q02153 1-619): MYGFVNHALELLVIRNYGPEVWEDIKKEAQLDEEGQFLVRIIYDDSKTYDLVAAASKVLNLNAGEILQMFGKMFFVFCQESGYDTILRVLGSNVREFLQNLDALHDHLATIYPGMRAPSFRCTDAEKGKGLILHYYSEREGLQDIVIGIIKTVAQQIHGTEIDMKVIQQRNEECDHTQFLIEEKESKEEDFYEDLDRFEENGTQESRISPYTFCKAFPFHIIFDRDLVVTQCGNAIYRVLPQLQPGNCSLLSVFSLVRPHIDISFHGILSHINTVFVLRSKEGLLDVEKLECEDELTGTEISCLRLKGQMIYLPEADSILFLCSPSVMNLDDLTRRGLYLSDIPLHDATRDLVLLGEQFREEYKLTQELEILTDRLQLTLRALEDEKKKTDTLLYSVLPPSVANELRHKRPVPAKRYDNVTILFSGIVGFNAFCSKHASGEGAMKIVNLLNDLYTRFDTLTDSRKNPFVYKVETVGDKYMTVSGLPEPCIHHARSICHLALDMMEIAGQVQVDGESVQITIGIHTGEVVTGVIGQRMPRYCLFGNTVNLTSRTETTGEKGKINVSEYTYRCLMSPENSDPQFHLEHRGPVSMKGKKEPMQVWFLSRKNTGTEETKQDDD
Experiment: Cell-Based sGC Functional Assay (CASA Assay)
Conditions: CHO-K1/sGC cells; for EC50: intracellular cGMP by HTRF, 1 hr at 37° C., IP from 4P fit, presence or absence of 1 μM DETA-NO not given; for Emax: cGMP as percentage of maximum cGMP production of Compound A (=100% activation), read-out: % ACT (percent activation)
Description: Biological Assays: Cell-Based sGC Functional Assay (CASA Assay)
sGC is a heme-containing enzyme that converts GTP to secondary messenger cGMP. Increases in cGMP levels affect several physiological processes including vasorelaxation through multiple downstream pathways. […] Heme-dependent activators (HDAs) preferentially activate sGC containing a ferrous heme group. To determine the effect of sGC activators on enzyme activity, the CASA assay was developed to monitor the generation of cGMP in a cell line that stably expresses the heterodimeric sGC protein.
A CHO-K1 cell line stably expressing the sGC α1/β1 heterodimer was generated using a standard transfection protocol. CHO-K1 cells were transfected with plasmids pIREShyghsGCα1 and pIRESneo-hsGCβ1 simultaneously using FUGENE reagent. Clones that stably express both subunits were selected with hygromycin and neomycin for ˜2 weeks. Clone #7 was chosen for the assay and was designated CHO-K1/sGC. CHO-K1/sGC cells were maintained in F-K12 medium containing 10% heat-inactivated Fetal Bovine Serum (FBS), 100 μg/mL penicillin/streptomycin, 0.5 mg/mL hygromycin and 0.25 mg/mL G418. The cells were then cryopreserved in LN2. On the day of the assay, cells were thawed and resuspended in EBSS Assay Buffer (EAB, Sigma, E3024) supplemented with 5 mM MgCl2, 10 mM HEPES (4-(2-hydroxyethyl)piperazine-1-ethanesulfonic acid) and 0.05% BSA (bovine serum albumin) and cell density was then adjusted to 4×10^5/mL with EAB. IBMX (3-isobutyl-1-methylxanthin, 0.5 mM) was added to inhibit degradation of cGMP. Compounds were diluted from DMSO stock solutions and added to the assay at a final DMSO concentration of 2.5%. Cells were incubated with compounds in the presence and absence of 1 μM of Diethylenetriamine/nitric oxide adduct (DETA-NO; Sigma, 17018) for 1 hr at 37° C. At the end of the incubation period, the reaction was terminated and the cells were lysed with the detection reagents from Cisbio Kits. The level of intracellular cGMP was determined using an HTRF-based assay kit (CisBio, 62GM2PEC), which detects the displacement of a fluorescence labeled cGMP from its specific antibody. The cGMP produced by test compounds was directly compared to the maximum cGMP production (this value was set to equal 100% activation) of the published sGC-HDA Compound A:
[drawing 123] (Example 1 in WO 2010/065275, published Jun. 10, 2010). The test compounds' activity was then expressed as a percentage of Compound A, the standard in every experiment. This percent activation was calculated either in the presence or absence of DETA-NO which was then plotted. IP and maximum fold induction was derived using ADA analysis software for 4P fit.

Structure (SMILES)	EC50 [nM]	Emax [%]
Cn1ncc2c(-c3nc(N)c4c(n3)NC(=O)C4(C)NC(=O)c3ccccn3)nc(CCC(F)(F)C(F)(F)F)nc21 (stereo not shown) [Example 51, N-(4-Amino-5-methyl-2-(1-methyl-6-(3,3,4,4,4-pentafluorobutyl)-1H-pyrazolo[3,4-d]pyrimidin-4-yl)-6-oxo-6,7-dihydro-5H-pyrrolo[2,3-d]pyrimidin-5-yl)picolinamide]	746	109
[2H]C([2H])([2H])n1ncc2c(-c3nc(N)c4c(n3)NC(=O)C4(C)C(=O)Nc3cnn(C)c3)nc(CCC(F)(F)C(F)(F)F)nc21 (single isomer, unassigned) [Example 42, 4-amino-5-methyl-N-(1-methyl-1H-pyrazol-4-yl)-2-(6-(3,3,4,4,4-pentafluorobutyl)-1-trideuteriomethyl-1H-pyrazolo[3,4-d]pyrimidin-4-yl)-6-oxo-6,7-dihydro-5H-pyrrolo[2,3-d]pyrimidine-5-carboxamide]	111	134
Cn1ncc2c(-c3nc(N)c4c(n3)NC(=O)C4(C)C(=O)NC3CC3)nc(Cc3cccc(F)c3F)nc21 (single isomer, unassigned) [Example 40, 4-Amino-N-cyclopropyl-2-(6-(2,3-difluorobenzyl)-1-methyl-1H-pyrazolo[3,4-d]pyrimidin-4-yl)-5-methyl-6-oxo-6,7-dihydro-5H-pyrrolo[2,3-d]pyrimidine-5-carboxamide]	55	121
C#CC1(CC)C(=O)Nc2nc(-c3nc(CCC(F)(F)C(F)(F)F)nc4c3cnn4C)nc(N)c21 (single isomer, unassigned) [Example 23, 4-Amino-5-ethyl-5-ethynyl-2-(1-methyl-6-(3,3,4,4,4-pentafluorobutyl)-1H-pyrazolo[3,4-d]pyrimidin-4-yl)-5H-pyrrolo[2,3-d]pyrimidin-6(7H)-one]	49	106
[2H]C([2H])([2H])n1ncc2c(-c3nc(N)c4c(n3)NC(=O)C4(C(N)=O)C(C)C)nc(CCC(F)(F)C(F)(F)F)nc21 (single isomer, unassigned) [Example 37, 4-Amino-5-isopropyl-2-(6-(3,3,4,4,4-pentafluorobutyl)-1-trideuteriomethyl-1H-pyrazolo[3,4-d]pyrimidin-4-yl)-6-oxo-6,7-dihydro-5H-pyrrolo[2,3-d]pyrimidine-5-carboxamide]	540	93
Cn1ccc2c(-c3nc(N)c4c(n3)NC(=O)C4(C)C)nc(CCC(F)(F)C(F)(F)F)nc21 [Example 63, 4-Amino-5,5,7′-trimethyl-2′-(3,3,4,4,4-pentafluorobutyl)-5H,7′H-[2,4′-bipyrrolo[2,3-d]pyrimidin]-6(7H)-one]	502	76
Cn1ccc2c(-c3nc(N)c4c(n3)NC(=O)C4(C)c3ccccc3)nc(Cc3cccc(F)c3F)nc21 (single isomer, unassigned) [Example 64, 4-Amino-2′-(2,3-difluorobenzyl)-5,7′-dimethyl-5-phenyl-5H,7′H-[2,4′-bipyrrolo[2,3-d]pyrimidin]-6(7H)-one]	12	83
[2H]C([2H])([2H])n1ncc2c(-c3nc(N)c4c(n3)NC(=O)C4(C)C#C)nc(CCC(F)(F)C(F)(F)F)nc21 (single isomer, unassigned) [Example 22, 4-Amino-5-ethynyl-5-methyl-2-(6-(3,3,4,4,4-pentafluorobutyl)-1-trideuteriomethyl-1H-pyrazolo[3,4-d]pyrimidin-4-yl)-5H-pyrrolo[2,3-d]pyrimidin-6(7H)-one]	46	128

Now from value to compound:

EC50 [nM]	Emax [%]	Structure (SMILES)
716	138	[2H]C([2H])([2H])n1ncc2c(-c3nc(N)c4c(n3)NC(=O)C4(C)c3ccc(-c4nnco4)cc3)nc(CCC(F)(F)C(F)(F)F)nc21 (single isomer, unassigned) [Example 45, 5-(4-(1,3,4-Oxadiazol-2-yl)phenyl)-4-amino-5-methyl-2-(1-methyl-6-(3,3,4,4,4-pentafluorobutyl)-1H-pyrazolo[3,4-d]pyrimidin-4-yl)-5H-pyrrolo[2,3-d]pyrimidin-6(7H)-one]
40	101	[2H]C([2H])([2H])n1ncc2c(-c3nc(N)c4c(n3)NC(=O)C4(C)c3ccccc3)nc(CCC(F)(F)C(F)(F)F)nc21 (single isomer, unassigned) [Example 13, 4-Amino-5-methyl-2-(6-(3,3,4,4,4-pentafluorobutyl)-1-trideuteriomethyl-1H-pyrazolo[3,4-d]pyrimidin-4-yl)-5-phenyl-5H-pyrrolo[2,3-d]pyrimidin-6(7H)-one]
92	106	C#CC1(C)C(=O)Nc2nc(-c3nc(CCC(F)(F)C(F)(F)F)nc4c3cnn4C)nc(N)c21 (single isomer, unassigned) [Example 21, 4-Amino-5-ethynyl-5-methyl-2-(1-methyl-6-(3,3,4,4,4-pentafluorobutyl)-1H-pyrazolo[3,4-d]pyrimidin-4-yl)-5H-pyrrolo[2,3-d]pyrimidin-6(7H)-one]
197	116	Cn1ncc2c(-c3nc(N)c4c(n3)NC(=O)C4(C)c3ccc(Br)cc3)nc(CCC(F)(F)C(F)(F)F)nc21 (single isomer, unassigned) [Example 10, 4-Amino-5-(4-bromophenyl)-5-methyl-2-(1-methyl-6-(3,3,4,4,4-pentafluorobutyl)-1H-pyrazolo[3,4-d]pyrimidin-4-yl)-5H-pyrrolo[2,3-d]pyrimidin-6(7H)-one]
632	70	Cn1nc(Cl)c2c(-c3nc(N)c4c(n3)NC(=O)C4(C)c3ccc(F)cc3)nc(CCC(F)(F)C(F)(F)F)nc21 (single isomer, unassigned) [Example 58, 4-Amino-2-(3-chloro-1-methyl-6-(3,3,4,4,4-pentafluorobutyl)-1H-pyrazolo[3,4-d]pyrimidin-4-yl)-5-(4-fluorophenyl)-5-methyl-5H-pyrrolo[2,3-d]pyrimidin-6(7H)-one]
143	123	CCn1ncc2c(-c3nc(N)c4c(n3)NC(=O)C4(C)c3ccc(F)cc3)nc(CCCC(F)(F)F)nc21 (single isomer, unassigned) [Example 20, 4-Amino-2-(1-ethyl-6-(4,4,4-trifluorobutyl)-1H-pyrazolo[3,4-d]pyrimidin-4-yl)-5-(4-fluorophenyl)-5-methyl-5H-pyrrolo[2,3-d]pyrimidin-6(7H)-one]
